Reference: PubChem BioAssay AID192 (DTP/NCI, 2004)
“And” between values parts separate entries of the source, which are not always exact repeats. Equal entries are not always repeated. Inconclusive results and toxic doses are left out.

System: BDF1 mice, B16 melanoma ip, median survival T/C
Assay: NCI In Vivo Anticancer Drug Screen. Data for tumor model B16 Melanoma (intraperitoneal) in B6D2F1 (BDF1) mice
Settings: endpoint: median survival time, higher = longer survival
How it was run: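 Transplantable tumor model; survival or tumor size measured; reported as T/C, treated over vehicle control.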

[1] = dose: 8.0 mg/kg/injection, schedule: Q01DX009 (ip), vehicle: saline
[2] = dose: 100.0 mg/kg/injection, schedule: Q01DX009 (ip), vehicle: Klucel (hydroxypropylcellulose) (HPC)
[3] = dose: 200.0 mg/kg/injection, schedule: Q01DX009 (ip), vehicle: Klucel (hydroxypropylcellulose) (HPC)
[4] = dose: 400.0 mg/kg/injection, schedule: Q01DX009 (ip), vehicle: Klucel (hydroxypropylcellulose) (HPC)
[5] = dose: 12.5 mg/kg/injection, schedule: Q01DX009 (ip), vehicle: saline with Tween-80
[6] = dose: 25.0 mg/kg/injection, schedule: Q01DX009 (ip), vehicle: saline with Tween-80
[7] = dose: 100.0 mg/kg/injection, schedule: Q01DX009 (ip), vehicle: saline
[8] = dose: 200.0 mg/kg/injection, schedule: Q01DX009 (ip), vehicle: saline
[9] = dose: 400.0 mg/kg/injection, schedule: Q01DX009 (ip), vehicle: saline

O=C(O)C1(C(=O)O)CCC1.[NH2-].[NH2-].[Pt+2]
T/C (dose: 2.0 mg/kg/injection, schedule: Q01DX009 (ip), vehicle: saline): 112 % of control | T/C (dose: 4.0 mg/kg/injection, schedule: Q01DX009 (ip), vehicle: saline): 115 % of control | T/C (dose: 6.25 mg/kg/injection, schedule: Q01DX009 (ip), vehicle: other): 123 % of control | T/C [1]: 150 % of control | T/C (dose: 12.5 mg/kg/injection, schedule: Q01DX009 (ip), vehicle: other): 176 % of control | T/C (dose: 16.0 mg/kg/injection, schedule: Q01DX009 (ip), vehicle: saline): 176 % of control | T/C (dose: 25.0 mg/kg/injection, schedule: Q01DX009 (ip), vehicle: other): 160 % of control and 164 % of control | T/C (dose: 32.0 mg/kg/injection, schedule: Q01DX009 (ip), vehicle: saline): 176 % of control

O=C(OCC(COC(=O)c1ccccc1)(COC(=O)c1ccccc1)COC(=O)c1ccccc1)c1ccccc1
T/C [2]: 111 % of control | T/C [3]: 102 % of control | T/C [4]: 92 % of control

CNC(=O)N(C)c1cc(N(C)C)nc(OC)n1
T/C (dose: 5.0 mg/kg/injection, schedule: Q01DX009 (ip), vehicle: Klucel (hydroxypropylcellulose) (HPC)): 101 % of control | T/C (dose: 10.0 mg/kg/injection, schedule: Q01DX009 (ip), vehicle: Klucel (hydroxypropylcellulose) (HPC)): 93 % of control | T/C (dose: 20.0 mg/kg/injection, schedule: Q01DX009 (ip), vehicle: Klucel (hydroxypropylcellulose) (HPC)): 94 % of control

Cc1cc(C(C)C)cc(C(C)C)c1
T/C (dose: 6.25 mg/kg/injection, schedule: Q04DX003 (ip), vehicle: Klucel (hydroxypropylcellulose) (HPC)): 102 % of control | T/C (dose: 12.5 mg/kg/injection, schedule: Q04DX003 (ip), vehicle: Klucel (hydroxypropylcellulose) (HPC)): 108 % of control | T/C (dose: 25.0 mg/kg/injection, schedule: Q04DX003 (ip), vehicle: Klucel (hydroxypropylcellulose) (HPC)): 105 % of control | T/C (dose: 50.0 mg/kg/injection, schedule: Q04DX003 (ip), vehicle: Klucel (hydroxypropylcellulose) (HPC)): 88 % of control | T/C (dose: 100.0 mg/kg/injection, schedule: Q04DX003 (ip), vehicle: Klucel (hydroxypropylcellulose) (HPC)): 98 % of control | T/C (dose: 200.0 mg/kg/injection, schedule: Q04DX003 (ip), vehicle: Klucel (hydroxypropylcellulose) (HPC)): 97 % of control

Cn1nc(N)c2ncc(-c3ccc(Cl)cc3)nc21
T/C [5]: 91 % of control | T/C [6]: 90 % of control

CC(=O)NCCCCCCNC(C)=O
T/C [7]: 101 % of control | T/C [8]: 105 % of control | T/C [9]: 87 % of control | T/C (dose: 800.0 mg/kg/injection, schedule: Q01DX009 (ip), vehicle: saline): 105 % of control

COC(=O)Nc1cccc(-c2nc3ccc(NC(=O)OC)cc3c(=O)n2-c2ccccc2)c1
T/C (dose: 8.0 mg/kg/injection, schedule: Q01DX009 (ip), vehicle: Klucel (hydroxypropylcellulose) (HPC)): 107 % of control | T/C [1]: 112 % of control | T/C (dose: 16.0 mg/kg/injection, schedule: Q01DX009 (ip), vehicle: Klucel (hydroxypropylcellulose) (HPC)): 107 % of control | T/C (dose: 50.0 mg/kg/injection, schedule: Q04DX005 (ip), vehicle: other): 112 % of control | T/C (dose: 50.0 mg/kg/injection, schedule: Q04DX006 (ip), vehicle: saline): 117 % of control | T/C (dose: 64.0 mg/kg/injection, schedule: Q01DX009 (ip), vehicle: saline): 123 % of control | T/C (dose: 100.0 mg/kg/injection, schedule: Q04DX005 (ip), vehicle: other): 120 % of control | T/C (dose: 100.0 mg/kg/injection, schedule: Q04DX005 (oral), vehicle: saline): 99 % of control | T/C (dose: 200.0 mg/kg/injection, schedule: Q04DX005 (oral), vehicle: saline): 97 % of control | T/C (dose: 400.0 mg/kg/injection, schedule: Q04DX005 (oral), vehicle: saline): 114 % of control

CC(C)(C)OC(=O)NC(CCCCNC(=O)C(F)(F)F)C(=O)ON1C(=O)CCC1=O (configuration not stated)
T/C (dose: 25.0 mg/kg/injection, schedule: Q04DX003 (ip), vehicle: saline with Tween-80): 114 % of control | T/C (dose: 50.0 mg/kg/injection, schedule: Q04DX003 (ip), vehicle: saline with Tween-80): 115 % of control | T/C (dose: 100.0 mg/kg/injection, schedule: Q04DX003 (ip), vehicle: saline with Tween-80): 90 % of control

CC(=O)CC(=O)Nc1ccc(C)c(C)c1
T/C [7]: 92 % of control | T/C [8]: 89 % of control | T/C [9]: 94 % of control

Cc1ccc(NC(=O)Nc2ccc(C)c(NC(=O)Nc3ccc(C)c(Cl)c3)c2)cc1Cl
T/C (dose: 6.25 mg/kg/injection, schedule: Q01DX009 (ip), vehicle: saline with Tween-80): 99 % of control | T/C [5]: 90 % of control | T/C [6]: 99 % of control

C=C1CCN(c2ccccc2Cl)C1=O
T/C (dose: 4.0 mg/kg/injection, schedule: Q01DX009 (ip), vehicle: saline + alcohol): 104 % of control | T/C (dose: 8.0 mg/kg/injection, schedule: Q01DX009 (ip), vehicle: saline + alcohol): 98 % of control | T/C (dose: 16.0 mg/kg/injection, schedule: Q01DX009 (ip), vehicle: saline + alcohol): 101 % of control | T/C (dose: 32.0 mg/kg/injection, schedule: Q01DX009 (ip), vehicle: saline + alcohol): 121 % of control

CC(=N/NC(N)=S)/C(C)=N/NC(N)=S
T/C [7]: 118 % of control | T/C [8]: 97 % of control

NC(=O)CCC(N)C(=O)O.[Cl-].[Cl-].[Cl-].[Cl-].[Pt+2] (configuration not stated)
T/C (dose: 1.56 mg/kg/injection, schedule: Q01DX009 (ip), vehicle: water): 110 % of control | T/C (dose: 3.13 mg/kg/injection, schedule: Q01DX009 (ip), vehicle: water): 110 % of control | T/C (dose: 12.5 mg/kg/injection, schedule: Q01DX009 (ip), vehicle: water): 120 % of control | T/C (dose: 25.0 mg/kg/injection, schedule: Q01DX009 (ip), vehicle: water): 112 % of control

CCNCCCN
T/C (dose: 6.25 mg/kg/injection, schedule: Q01DX009 (ip), vehicle: saline): 102 % of control | T/C (dose: 12.5 mg/kg/injection, schedule: Q01DX009 (ip), vehicle: saline): 102 % of control | T/C (dose: 25.0 mg/kg/injection, schedule: Q01DX009 (ip), vehicle: saline): 94 % of control

ClC1=C(Cl)C(Cl)(Cl)C(Cl)(Cl)C1(Cl)Cl
T/C [2]: 103 % of control

CS(C)=O
T/C (dose: 1:200.0 dilution, schedule: Q03HX088 (ip), vehicle: saline): 89 % of control | T/C (dose: 1:400.0 dilution, schedule: Q03HX088 (ip), vehicle: saline): 89 % of control | T/C (dose: 1.5 grams/kg/injection, schedule: Q01DX009 (ip), vehicle: saline): 96 % of control and 101 % of control | T/C (dose: 3.0 grams/kg/injection, schedule: Q01DX009 (ip), vehicle: saline): 106 % of control and 108 % of control | T/C (dose: 6.0 grams/kg/injection, schedule: Q01DX009 (ip), vehicle: saline): 97 % of control

O=S(=O)(OCC(COS(=O)(=O)c1ccccc1)(COS(=O)(=O)c1ccccc1)COS(=O)(=O)c1ccccc1)c1ccccc1
T/C (dose: 50.0 mg/kg/injection, schedule: Q01DX009 (ip), vehicle: saline with Tween-80): 110 % of control | T/C (dose: 100.0 mg/kg/injection, schedule: Q01DX009 (ip), vehicle: saline with Tween-80): 97 % of control | T/C (dose: 200.0 mg/kg/injection, schedule: Q01DX009 (ip), vehicle: saline with Tween-80): 110 % of control

O=c1[nH]c(=O)n(C2CC(O)C(CO)O2)cc1Br (configuration not stated)
T/C (dose: 25.0 mg/kg/injection, schedule: Q01DX009 (ip), vehicle: Klucel (hydroxypropylcellulose) (HPC)): 101 % of control | T/C (dose: 50.0 mg/kg/injection, schedule: Q01DX009 (ip), vehicle: Klucel (hydroxypropylcellulose) (HPC)): 117 % of control

COc1ccc(NC(=O)COc2ccc(Cl)cc2)cc1
T/C [2]: 90 % of control | T/C [3]: 100 % of control | T/C [4]: 86 % of control
